This passage reports ring closure, isolated yield, Ki and EC50 results from patent US7659245B2, “Macrocylic inhibitors of hepatitis C virus” (Tibotec Pharmaceuticals Ltd, priority 2005, dated 2010).

For orientation: Ki means the equilibrium dissociation constant of an inhibitor or competing ligand from its target. A high value points to a looser hold on the target. The EC50 is the concentration at which the effect is half-maximal.

For series [1] the following is noted: rcm bond, DCE.
For series [2], the target named is full-length hepatitis C NS3 protease enzyme (HCV NS3/4A protease complexes) (Hepatitis C virus genotype 1a, UniProt P27958). The series is described as follows: Inhibition assay (enzymatic assay) of HCV NS3/4A protease. It counts as biochemical. To be noted: enzyme 1 nM, 25 μM NS4A cofactor, 0.5 μM depsipeptide substrate, 30° C., competitive model. The procedure: The aim of this in vitro assay is to measure the inhibition of HCV NS3/4A protease complexes by the compounds of the present invention. This assay provides an indication of how effective compounds of the present invention would be in inhibiting HCV NS3/4A proteolytic activity.
Chain of full-length hepatitis C NS3 protease enzyme (HCV NS3/4A protease complexes) (P27958 1027-1657, one chain of several): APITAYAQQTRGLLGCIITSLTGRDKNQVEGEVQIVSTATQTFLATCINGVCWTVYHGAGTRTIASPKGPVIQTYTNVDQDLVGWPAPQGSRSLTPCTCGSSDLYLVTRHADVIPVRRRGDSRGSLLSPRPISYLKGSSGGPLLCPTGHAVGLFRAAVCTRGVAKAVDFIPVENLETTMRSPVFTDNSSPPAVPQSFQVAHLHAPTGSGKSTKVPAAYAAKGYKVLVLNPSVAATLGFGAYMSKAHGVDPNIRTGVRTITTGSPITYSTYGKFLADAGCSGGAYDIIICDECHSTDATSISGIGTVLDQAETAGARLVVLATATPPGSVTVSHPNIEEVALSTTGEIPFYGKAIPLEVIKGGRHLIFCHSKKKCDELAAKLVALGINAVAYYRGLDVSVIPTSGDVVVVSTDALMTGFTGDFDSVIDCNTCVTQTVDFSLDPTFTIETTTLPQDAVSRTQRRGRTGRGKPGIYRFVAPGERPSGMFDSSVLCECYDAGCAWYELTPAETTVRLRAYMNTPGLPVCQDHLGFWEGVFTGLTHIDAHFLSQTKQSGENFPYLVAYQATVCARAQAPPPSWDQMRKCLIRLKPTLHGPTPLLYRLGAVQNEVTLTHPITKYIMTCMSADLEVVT
The inhibition of full-length hepatitis C NS3 protease enzyme was measured essentially as described in Poliakov, 2002 Prot Expression & Purification 25 363 371. Briefly, the hydrolysis of a depsipeptide substrate, Ac-DED(Edans)EEAbuψ[COO]ASK(Dabcyl)-NH2 (AnaSpec, San José, USA), was measured spectrofluorometrically in the presence of a peptide cofactor, KKGSVVIVGRIVLSGK (Åke Engström, Department of Medical Biochemistry and Microbiology, Uppsala University, Sweden). [Landro, 1997 #Biochem 36 9340-9348]. The enzyme (1 nM) was incubated in 50 mM HEPES, pH 7.5, 10 mM DTT, 40% glycerol, 0.1% n-octyl-D-glucoside, with 25 μM NS4A cofactor and inhibitor at 30° C. for 10 min, whereupon the reaction was initiated by addition of 0.5 μM substrate. Inhibitors were dissolved in DMSO, sonicated for 30 sec. and vortexed. The solutions were stored at −20° C. between measurements.
The final concentration of DMSO in the assay sample was adjusted to 3.3%. The rate of hydrolysis was corrected for inner filter effects according to published procedures. [Liu, 1999 Analytical Biochemistry 267 331-335]. Ki values were estimated by non-linear regression analysis (GraFit, Erithacus Software, Staines, MX, UK), using a model for competitive inhibition and a fixed value for Km (0.15 μM). A minimum of two replicates was performed for all measurements.

Series [3] has as its system HCV replicons (Huh-7 luc/neo cells, NS3-NS5B regions of HCV type 1b). The series is described as follows: Replicon assay: inhibition of HCV RNA replication in Huh-Luc cells (luciferase read-out). To be noted: HCV type 1b replicon, luciferase activity after three days. It counts as cell-based. How it is done: The in vitro antiviral activity against HCV of the compounds of formula (I) was tested in a cellular HCV replicon system based on Lohmann et al. (1999) Science 285:110-113, with the further modifications described by Krieger et al. (2001) Journal of Virology 75: 4614-4624 (incorporated herein by reference), which is further exemplified in the examples section. This model, while not a complete infection model for HCV, is widely accepted as the most robust and efficient model of autonomous HCV RNA replication currently available. […] It will be appreciated that it is important to distinguish between compounds that specifically interfere with HCV functions from those that exert cytotoxic or cytostatic effects in the HCV replicon model, and as a consequence cause a decrease in HCV RNA or linked reporter enzyme concentration. Assays are known in the field for the evaluation of cellular cytotoxicity based for example on the activity of mitochondrial enzymes using fluorogenic redox dyes such as resazurin. Furthermore, cellular counter screens exist for the evaluation of non-selective inhibition of linked reporter gene activity, such as firefly luciferase. Appropriate cell types can be equipped by stable transfection with a luciferase reporter gene whose expression is dependent on a constitutively active gene promoter, and such cells can be used as a counter-screen to eliminate non-selective inhibitors.
The compounds of formula (I) were examined for activity in the inhibition of HCV RNA replication in a cellular assay. […] The cellular assay was based on a bicistronic expression construct, as described by Lohmann et al. (1999) Science vol. 285 pp. 110-113 with modifications described by Krieger et al. (2001) Journal of Virology 75: 4614-4624, in a multi-target screening strategy. In essence, the method was as follows.
The assay utilized the stably transfected cell line Huh-7 luc/neo (hereafter referred to as Huh-Luc). This cell line harbors an RNA encoding a bicistronic expression construct comprising the wild type NS3-NS5B regions of HCV type 1b translated from an Internal Ribosome Entry Site (IRES) from encephalomyocarditis virus (EMCV), preceded by a reporter portion (FfL-luciferase), and a selectable marker portion (neo^R, neomycine phosphotransferase). The construct is bordered by 5′ and 3′ NTRs (non-translated regions) from HCV type 1b. Continued culture of the replicon cells in the presence of G418 (neo^R) is dependent on the replication of the HCV RNA. The stably transfected replicon cells that express HCV RNA, which replicates autonomously and to high levels, encoding inter alia luciferase, are used for screening the antiviral compounds.
The replicon cells were plated in 384 well plates in the presence of the test and control compounds which were added in various concentrations. Following an incubation of three days, HCV replication was measured by assaying luciferase activity (using standard luciferase assay substrates and reagents and a Perkin Elmer ViewLux™ ultraHTS microplate imager). Replicon cells in the control cultures have high luciferase expression in the absence of any inhibitor. The inhibitory activity of the compound on luciferase activity was monitored on the Huh-Luc cells, enabling a dose-response curve for each test compound. EC50 values were then calculated, which value represents the amount of the compound required to decrease by 50% the level of detected luciferase activity, or more specifically, the ability of the genetically linked HCV replicon RNA to replicate.
In general terms: In antiviral work, replicon cells carry a viral genome segment that copies itself.

Where [4] appears, read: 14-membered ring, Hoveyda-Grubbs I, with chain assembly.

Like-named read-outs stand apart in the source and are kept apart here.

Take `CCOC(=O)C12CC1C=CCCCCCN(Cc1ccc(OC)cc1)C(=O)N1CC(OC(=O)c3ccc([N+](=O)[O-])cc3)CC1C(=O)N2` (stereo not drawn): the ring closure, isolated yield in series [1] (from C=CCCCCCN(Cc1ccc(OC)cc1)C(=O)N1CC(OC(=O)c2ccc([N+](=O)[O-])cc2)CC1C(=O)NC1(C(=O)OCC)CC1C=C, 15-membered ring, Hoveyda-Grubbs II (5 mol%), then LiOH, 0.74 mM, 2 steps) is 61%.

`CCOC(=O)C12CC1C=CCCCCN(C)C(=O)C1CC(Oc3nc(-c4ccc(OC)cc4)nc4c(C)c(OC)ccc34)CC1C(=O)N2` (stereo not drawn) came in with a ring closure, isolated yield in series [1] (from C=CCCCCN(C)C(=O)C1CC(Oc2nc(-c3ccc(OC)cc3)nc3c(C)c(OC)ccc23)CC1C(=O)NC1(C(=O)OCC)CC1C=C, 14-membered ring, Hoveyda-Grubbs II, 1.71 mM, 16.0 h) of 75%.

In turn, `CCOC(=O)C12CC1C=CCCCCN(C)C(=O)C1CC(Oc3nc(-c4cccc(F)c4)nc4c(C)c(OC)ccc34)CC1C(=O)N2` (stereo not drawn) registered a ring closure, isolated yield in series [1] (from C=CCCCCN(C)C(=O)C1CC(Oc2nc(-c3cccc(F)c3)nc3c(C)c(OC)ccc23)CC1C(=O)NC1(C(=O)OCC)CC1C=C, 14-membered ring, Hoveyda-Grubbs II, 1.49 mM, 16.0 h) of 70%.

In series [1] (setting [4]), `COc1ccc2c(OC3CC4C(=O)NC5(C(=O)O)CC5C=CCCCCN(C)C(=O)N4C3)nc(-c3ccc(F)cc3)nc2c1C` (stereo not drawn) returned a ring closure, isolated yield of 20%.

Regarding `COc1ccc2c(OC3CC4C(=O)NC5(C(=O)O)CC5C=CCCCCN(C)C(=O)N4C3)ncnc2c1C` (stereo not drawn), in series [1] (setting [4]), the ring closure, isolated yield amounted to 8%.

In turn, “17-(7-Methoxy-2-phenyl-quinazolin-4-yloxy-13-methyl-2,14-dioxo-3,13-diazatricyclo[13.3.0.0*4,6*]octadec-7-ene-4-carboxylic acid ethyl ester” yielded a ring closure, isolated yield in series [1] (14-membered ring, Hoveyda-Grubbs I, 1.1 mM) of 40%.

Regarding `COc1ccc2c(O[C@@H]3C[C@H]4C(=O)N[C@]5(C(=O)NS(=O)(=O)C6CC6)C[C@H]5/C=C\CCCCN(C)C(=O)N4C3)nc(-c3cccc(F)c3)nc2c1C` [Compound 165, Cyclopropanesulfonic acid {17-[2-(3-fluoro-phenyl)-7-methoxy-8-methyl-quinazolin-4-yloxy]-13-methyl-2,14-dioxo-3,13,15-triaza-tricyclo[13.3.0.0*4,6*]octadec-7-ene-4-carbonyl}-amide], in series [2], the Ki lay within 0.1 to 4.9 nM. Also, in series [3] (Hepatitis C virus, Huh-7, 72 h), the EC50 is 0.5 to 199 nM.

Turning to `COc1ccc2c(O[C@@H]3C[C@H]4C(=O)N[C@]5(C(=O)NS(=O)(=O)C6CC6)C[C@H]5/C=C\CCCCN(C)C(=O)[C@@H]4C3)nc(-c3cc(F)cc(F)c3)nc2c1C` [Compound 170, Cyclopropanesulfonic acid {17-[2-(3,5-difluoro-phenyl)-7-methoxy-8-methyl-quinazolin-4-yloxy]-13-methyl-2,14-dioxo-3,13-diaza-tricyclo[13.3.0.0*4,6*]octadec-7-ene-4-carbonyl}-amide], the Ki in series [2] fell in the range of 5 to 99.9 nM. The EC50 in series [3] (Hepatitis C virus, Huh-7, 72 h) was in the range of 0.5 to 199 nM.

Regarding `COc1ccc2c(O[C@@H]3C[C@H]4C(=O)N[C@]5(C(=O)NS(=O)(=O)C6CC6)C[C@H]5/C=C\CCCCCNC(=O)N4C3)nc(-c3ccccc3)nc2c1C` [Compound 174, Cyclopropanesulfonic acid [18-(7-methoxy-8-methyl-2-phenyl-quinazolin-4-yloxy)-2,15-dioxo-3,14,16-triaza-tricyclo[14.3.0.0*4,6*]nonadec-7-ene-4-carbonyl]-amide], the Ki in series [2] lay in the range of 0.1 to 4.9 nM. In addition, the EC50 in series [3] (Hepatitis C virus, Huh-7, 72 h) was in the range of 0.5 to 199 nM.

In series [2], `COc1ccc2c(O[C@@H]3C[C@H]4C(=O)N[C@]5(C(=O)NS(=O)(=O)C6(C)CC6)C[C@H]5/C=C\CCCCCNC(=O)N4C3)nc(-c3ccccc3)nc2c1C` [Compound 176, 1-Methyl-cyclopropanesulfonic acid [18-(7-methoxy-8-methyl-2-phenyl-quinazolin-4-yloxy)-2,15-dioxo-3,14,16-triaza-tricyclo[14.3.0.0*4,6*]nonadec-7-ene-4-carboyl]-amide] registered a Ki of 0.1 to 4.9 nM. For the same molecule, the EC50 in series [3] (Hepatitis C virus, Huh-7, 72 h) fell in the range of 0.5 to 199 nM.

`COc1ccc2c(O[C@@H]3C[C@H]4C(=O)N[C@]5(C(=O)NS(=O)(=O)C6CC6)C[C@H]5/C=C\CCCCN(C)C(=O)N4C3)nc(-c3ccncc3)nc2c1C` [Compound 179, Cyclopropanesulfonic acid [17-(7-methoxy-8-methyl-2-pyridin-4-yl-quinazolin-4-yloxy)-13-methyl-2,14-dioxo-3,13,15-triaza-tricyclo[13.3.0.0*4,6*]octadec-7-ene-4-carbonyl]-amide] had a Ki in series [2] of 0.1 to 4.9 nM. For the same molecule, the EC50 in series [3] (Hepatitis C virus, Huh-7, 72 h) fell in the range of 0.5 to 199 nM.

Turning to “Cyclopropanesulfonic acid {13-methyl-2,14-dioxo-17-[2-(5H-pyrazol-1-yl)-quinazolin-4-yloxy]-3,13-diaza-tricyclo[13.3.0.0*4,6*]octadec-7-ene-4-carbonyl-amide [Compound 70]”, the Ki in series [2] is greater than 1000 nM. The EC50 in series [3] was greater than 10000 nM.
